Test results taken from patent US7795226B2, “Control of radiation injury” (Biotempt B.V., priority 2006, dated 2010).
“And” between values parts separate entries of the source, which are not always exact repeats. Equal values may be shown once.

What was measured:
Type in all cases: in vivo
[1] = system: renal ischemia reperfusion in mice; experiment: mouse renal ischemia reperfusion test; parameters: BUN after 25 minutes renal ischemia, mean / Urea levels in dose-response experiment: unit not given here
Summary of the method: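 In anesthetized mice kept at 37° C, the left renal pedicle was clamped for 25 min and the right kidney removed after reperfusion. Peptide in saline was given i.v. (5 mg/kg; other series 0.3–30 mg/kg) 5 min before clamping and 5 min before release, with PBS as control. Mortality and BUN were measured at 2, 24 and 72 h; P values were calculated by Mann-Whitney U-test.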

[2] = system: LPS (E. coli 026:B6)-induced septic shock in BALB/c mice; experiment: LPS-induced septic shock, single dose of peptide
Protocol: Mice used in sepsis or septic shock experiments: Female BALB/c mice of eight to twelve weeks of age were used for all experiments. The animals were bred in our facility under specific pathogen-free conditions according to the protocols described in the […] of European Laboratory Animal Science Associations (FELASA) Working group on Animal Health (Laboratory Animals 28:1-24, 1994).
Injection protocols: For the endotoxin model, BALB/c mice were injected i.p. with 150-300 μg LPS (E. coli 026:B6; Difco Lab., Detroit, Mich., USA). Control groups were treated with PBS i.p. only. To test the effect of peptides, they were dissolved in PBS and injected i.p. at predetermined points in time after LPS treatment.
Mice were scored for sickness severity using the following measurement scheme: • 0 No abnormalities. • 1 Percolated fur, but no detectable behavior differences compared to normal mice. • 2 Percolated fur, huddle reflex, responds to stimuli (such as tap on cage), just as active during handling as healthy mouse. • 3 Slower response to tap on cage, passive or docile when handled, but still curious when alone in a new setting. • 4 Lack of curiosity, little or no response to stimuli, quite immobile. • 5 Labored breathing, inability or slow to self-right after being rolled onto back (moribund, sacrificed). • D Dead.
A first set of septic shock experiments were set up to determine which of the peptides LQG, LQGV (SEQ ID NO:117), VLPALP (SEQ ID NO:140), VLPALPQ (SEQ ID NO:143), MTR, MTRV (SEQ ID NO:119), VVC or QVVC (SEQ ID NO:118) were capable of inhibiting lipopolysaccharide (LPS)-induced septic shock in mice by treating mice with a single dose of peptide at two hours after LPS treatment. Peptides were used at 5 mg/kg bodyweight. BALB/c mice were injected i.p. with escalating doses LPS (E. coli 026:B6; Difco Lab., Detroit, Mich. USA), predetermined to be leading to 80 to 100% mortality in 24 to 72 hours.
To test the effect of peptide early in the development of shock, mice were treated at two hours or at 24 hours after treatment with varying doses of LPS by i.p. injection with test peptide at 5 mg/kg bodyweight.

[3] = system: LPS (E. coli 026:B6)-induced sepsis in BALB/c mice; experiment: endotoxin shock survival after early or late treatment with peptide
[4] = 2 hours after reperfusion, 5 mg/kg i.v.
[5] = 24 hours after reperfusion, 5 mg/kg i.v.
[6] = 72 hours after reperfusion, 5 mg/kg i.v.
[7] = t = 0 hr (before clamping), 5 mg/kg i.v.
[8] = LPS dose 7**, single dose 5 mg/kg
[9] = LPS dose 7*, single dose 5 mg/kg
[10] = LPS dose 10, single dose 5 mg/kg
[11] = LPS dose 10, single dose 5 mg/kg, 5 mg/kg
[12] = 0 hours, peptide 5 mg/kg 2 hours after LPS
[13] = 0 hours, peptide 5 mg/kg 24 hours after LPS
[14] = 14 hours, peptide 5 mg/kg 2 hours after LPS
[15] = 14 hours, peptide 5 mg/kg 24 hours after LPS
[16] = 24 hours, peptide 5 mg/kg 2 hours after LPS
[17] = 24 hours, peptide 5 mg/kg 24 hours after LPS
[18] = 48 hours, peptide 5 mg/kg 2 hours after LPS
[19] = 48 hours, peptide 5 mg/kg 24 hours after LPS
[20] = 84 hours, peptide 5 mg/kg 2 hours after LPS
[21] = 84 hours, peptide 5 mg/kg 24 hours after LPS
[22] = LPS dose 8, single dose 5 mg/kg
[23] = LPS dose 8, single dose 5 mg/kg, 5 mg/kg
[24] = LPS dose 9, single dose 5 mg/kg
[25] = LPS dose 9, single dose 5 mg/kg, 5 mg/kg

MTRV
BUN concentration versus the PBS control group (in words) ([1]; 5 mg/kg i.v.): reduced BUN concentration
mortality versus the PBS control group (in words) ([1]; 5 mg/kg i.v.): significant reduction in mortality
mortality at 72 hours post-reperfusion ([1]; 5 mg/kg i.v. before and after 25 minutes clamping, dead/total): 2/10
BUN after 25 minutes renal ischemia, mean [1, 4]: 15.09
BUN after 25 minutes renal ischemia, mean [1, 5]: 34.57
BUN after 25 minutes renal ischemia, mean [1, 6]: 39.8375
BUN after 25 minutes renal ischemia, mean [1, 7]: 7.463
mice scored D (dead), effect at t = 48 hours [2, 8]: 2
mice with sickness score 1, effect at t = 48 hours [2, 8]: 3
mice with sickness score 3, effect at t = 24 hours [2, 8]: 2
mice with sickness score 3, effect at t = 48 hours [2, 8]: 1
mice with sickness score 4, effect at t = 24 hours [2, 8]: 3
mice with sickness score 5, effect at t = 24 hours [2, 8]: 1
mice with sickness score 2, effect at t = 48 hours [2, 9]: 4
mice with sickness score 3, effect at t = 24 hours [2, 9]: 3
mice with sickness score 4, effect at t = 24 hours [2, 9]: 3
mice with sickness score 5, effect at t = 48 hours [2, 9]: 2
mice with sickness score 1, effect at t = 48 hours [2, 10]: 2
mice with sickness score 3, effect at t = 48 hours [2, 10]: 1
mice with sickness score 5, effect at t = 48 hours [2, 10]: 1
mice with sickness score 2, effect at t = 24 hours [2, 11]: 2 and 1
mice with sickness score 3, effect at t = 24 hours [2, 11]: 1 and 2
mice with sickness score 4, effect at t = 24 hours [2, 11]: 2 and 1
mice with sickness score 5, effect at t = 24 hours [2, 11]: 1 and 2
% Survival [3, 12]: 100%
% Survival [3, 13]: 100%
% Survival [3, 14]: 100%
% Survival [3, 15]: 100%
% Survival [3, 16]: 100%
% Survival [3, 17]: 100%
% Survival [3, 18]: 50%
% Survival [3, 19]: 100%
% Survival [3, 20]: 30%
% Survival [3, 21]: 100%

VLPALP (hexamer peptide)
BUN after 25 minutes renal ischemia, mean [1, 4]: 16.24
BUN after 25 minutes renal ischemia, mean [1, 5]: 62.4
BUN after 25 minutes renal ischemia, mean [1, 6]: 47.05
BUN after 25 minutes renal ischemia, mean [1, 7]: 8.423
protective effect against LPS-induced sepsis (in words) ([2]; 5 mg/kg i.p.): marked protective effect
mice with sickness score 1, effect at t = 24 hours [2, 8]: 5
mice with sickness score 1, effect at t = 48 hours [2, 8]: 5
mice with sickness score 2, effect at t = 24 hours [2, 8]: 1
mice with sickness score 2, effect at t = 48 hours [2, 8]: 1
mice with sickness score 1, effect at t = 24 hours [2, 9]: 4
mice with sickness score 1, effect at t = 48 hours [2, 9]: 5
mice with sickness score 2, effect at t = 24 hours [2, 9]: 2
mice with sickness score 2, effect at t = 48 hours [2, 9]: 1
mice with sickness score 0, effect at t = 48 hours [2, 22]: 2
mice with sickness score 3, effect at t = 48 hours [2, 22]: 1
mice with sickness score 1, effect at t = 24 hours [2, 23]: 3 and 2
mice with sickness score 1, effect at t = 48 hours [2, 23]: 3 and 5
mice with sickness score 2, effect at t = 48 hours [2, 23]: 2 and 1
mice scored D (dead), effect at t = 48 hours [2, 24]: 1
mice with sickness score 1, effect at t = 24 hours [2, 24]: 2
mice with sickness score 3, effect at t = 48 hours [2, 24]: 1
mice with sickness score 4, effect at t = 24 hours [2, 24]: 1
mice with sickness score 5, effect at t = 48 hours [2, 24]: 2
mice with sickness score 2, effect at t = 24 hours [2, 25]: 3 and 4
mice with sickness score 2, effect at t = 48 hours [2, 25]: 2 and 1
mice with sickness score 3, effect at t = 24 hours [2, 25]: 1 and 2
mice scored D (dead), effect at t = 48 hours [2, 10]: 2
mice with sickness score 2, effect at t = 48 hours [2, 10]: 2
mice with sickness score 3, effect at t = 48 hours [2, 10]: 2
mice with sickness score 5, effect at t = 48 hours [2, 10]: 1
mice with sickness score 1, effect at t = 48 hours [2, 11]: 3 and 2
mice with sickness score 2, effect at t = 24 hours [2, 11]: 3 and 4
mice with sickness score 4, effect at t = 24 hours [2, 11]: 3 and 2
% Survival [3, 12]: 100%
% Survival [3, 13]: 100%
% Survival [3, 14]: 100%
% Survival [3, 15]: 100%
% Survival [3, 16]: 100%
% Survival [3, 17]: 100%
% Survival [3, 18]: 100%
% Survival [3, 19]: 0%
% Survival [3, 20]: 100%
% Survival [3, 21]: 0%

VLPALPQ (septamer peptide)
BUN after 25 minutes renal ischemia, mean [1, 4]: 13.58
BUN after 25 minutes renal ischemia, mean [1, 5]: 37.79
BUN after 25 minutes renal ischemia, mean [1, 6]: 37.6375
BUN concentration versus PBS (in words) ([1]; at 72 hours post-reperfusion, 5 mg/kg i.v.): did much better in terms of reduced BUN concentration
BUN after 25 minutes renal ischemia, mean [1, 7]: 8.257
mice scored D (dead), effect at t = 24 hours [2, 8]: 1
mice scored D (dead), effect at t = 48 hours [2, 8]: 6
mice with sickness score 5, effect at t = 24 hours [2, 8]: 5
mice scored D (dead), effect at t = 48 hours [2, 9]: 2
mice with sickness score 3, effect at t = 24 hours [2, 9]: 3
mice with sickness score 4, effect at t = 24 hours [2, 9]: 3
mice with sickness score 4, effect at t = 48 hours [2, 9]: 2
mice with sickness score 5, effect at t = 48 hours [2, 9]: 2
mice scored D (dead), effect at t = 24 hours [2, 22]: 2
mice scored D (dead), effect at t = 48 hours [2, 22]: 6
mice with sickness score 2, effect at t = 24 hours [2, 22]: 1
mice with sickness score 3, effect at t = 24 hours [2, 22]: 3
mice with sickness score 3, effect at t = 48 hours [2, 22]: 1
mice with sickness score 4, effect at t = 48 hours [2, 22]: 3
mice with sickness score 5, effect at t = 24 hours [2, 22]: 3
mice with sickness score 5, effect at t = 48 hours [2, 22]: 2
mice with sickness score 4, effect at t = 24 hours [2, 23]: 2 and 1
mice scored D (dead), effect at t = 24 hours [2, 10]: 3
mice scored D (dead), effect at t = 48 hours [2, 10]: 5
mice with sickness score 3, effect at t = 24 hours [2, 10]: 1
mice with sickness score 4, effect at t = 24 hours [2, 10]: 2
mice with sickness score 5, effect at t = 48 hours [2, 10]: 1
mice with sickness score 5, effect at t = 24 hours [2, 11]: 4 and 2
% Survival [3, 12]: 100%
% Survival [3, 13]: 100%
% Survival [3, 14]: 100%
% Survival [3, 15]: 100%
% Survival [3, 16]: 100%
% Survival [3, 17]: 100%
% Survival [3, 18]: 0%
% Survival [3, 19]: 100%
% Survival [3, 20]: 0%
% Survival [3, 21]: 100%
